# Read-outs that look alike come from different tables or passages of the source.
# Legend:
# [1] = biological target: T1, cloned human κ-opioid receptor (Homo sapiens, UniProt P41145); experiment: Inhibition of U69,593-stimulated [35S]GTPγS binding; type: biochemical; conditions: for efficacy for the κ opioid receptor in words: [35S]GTPγS in vitro functional assay; for δ/κ / μ/κ: ratio of Ke values; for δ/κ: selectivity for κ relative to δ; for μ/κ: selectivity for κ relative to μ
# T1 construct: expressed in transfected cells
# T1 sequence (P41145 whole entry): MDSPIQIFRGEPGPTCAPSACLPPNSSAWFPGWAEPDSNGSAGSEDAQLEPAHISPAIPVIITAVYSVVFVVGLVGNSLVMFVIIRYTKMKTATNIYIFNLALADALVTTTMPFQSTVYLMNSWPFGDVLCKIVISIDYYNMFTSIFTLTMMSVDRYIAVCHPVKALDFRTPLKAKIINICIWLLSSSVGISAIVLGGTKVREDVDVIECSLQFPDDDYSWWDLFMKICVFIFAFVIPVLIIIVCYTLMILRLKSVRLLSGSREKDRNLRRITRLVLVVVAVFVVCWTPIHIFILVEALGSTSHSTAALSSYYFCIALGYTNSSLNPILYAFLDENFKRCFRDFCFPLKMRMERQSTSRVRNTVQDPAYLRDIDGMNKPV
# [2] = biological target: T2, cloned human μ-opioid receptor (Homo sapiens, UniProt P35372); experiment: Inhibition of DAMGO-stimulated [35S]GTPγS binding; type: biochemical
# T2 construct: expressed in transfected cells
# T2 sequence (P35372 whole entry): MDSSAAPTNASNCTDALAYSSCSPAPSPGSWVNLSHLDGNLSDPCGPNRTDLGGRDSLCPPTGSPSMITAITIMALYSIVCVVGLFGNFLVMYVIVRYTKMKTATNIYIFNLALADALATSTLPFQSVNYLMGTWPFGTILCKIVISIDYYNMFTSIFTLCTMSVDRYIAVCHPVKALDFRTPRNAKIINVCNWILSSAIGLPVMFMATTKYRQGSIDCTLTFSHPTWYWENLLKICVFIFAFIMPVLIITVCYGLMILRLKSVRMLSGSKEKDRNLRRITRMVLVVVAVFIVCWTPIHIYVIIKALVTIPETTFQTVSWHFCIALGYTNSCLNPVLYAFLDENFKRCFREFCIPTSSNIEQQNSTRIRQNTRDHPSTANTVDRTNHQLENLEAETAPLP
# [3] = biological target: T3, cloned human δ-opioid receptor (Homo sapiens, UniProt P41143); experiment: Inhibition of DPDPE-stimulated [35S]GTPγS binding; type: biochemical
# T3 construct: expressed in transfected cells
# T3 sequence (P41143 whole entry): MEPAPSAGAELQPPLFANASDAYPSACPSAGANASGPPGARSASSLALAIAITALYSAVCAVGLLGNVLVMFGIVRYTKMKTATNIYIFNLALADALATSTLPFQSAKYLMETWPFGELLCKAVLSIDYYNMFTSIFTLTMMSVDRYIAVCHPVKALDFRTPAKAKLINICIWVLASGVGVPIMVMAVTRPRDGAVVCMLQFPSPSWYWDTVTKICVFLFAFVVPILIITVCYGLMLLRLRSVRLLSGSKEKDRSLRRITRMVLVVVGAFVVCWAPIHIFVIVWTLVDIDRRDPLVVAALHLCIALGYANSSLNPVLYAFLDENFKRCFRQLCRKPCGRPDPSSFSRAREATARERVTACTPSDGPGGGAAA
# [4] = antagonism of U69,593-stimulated [35S]GTPγS binding, cloned human κ receptor, read-out: κ, U69,593 Ke
# [5] = antagonism of DAMGO-stimulated [35S]GTPγS binding, cloned human μ receptor, read-out: μ, DAMGO Ke
# [6] = antagonism of DPDPE-stimulated [35S]GTPγS binding, cloned human δ receptor, read-out: δ, DPDPE Ke
Compound,efficacy for the κ opioid receptor in words [1],"Kb [1, 4] [µM]",δ/κ [1],μ/κ [1],melting point [°C],"Kb [2, 5] [µM]","Kb [3, 6] [µM]",Kb [1] [µM],Kb [2] [µM],Kb [3] [µM]
"CC(C)[C@@H](CN1CCN(c2cccc(O)c2)[C@@H](C)C1)NC(=O)c1ccc(Oc2ccccc2F)cc1.Cl.Cl [Compound 19a, 4-(2-Fluorophenoxy)-N-[(1S)-1-{[(3S)-4-(3-hydroxyphenyl)-3-methylpiperazin-1-yl]methyl}-2-methylpropyl]benzamide Dihydrochloride]",high efficacy (low Ke values),0.00076 ± 0.00021,126,28,156 to 159,0.0211 ± 0.004,0.096 ± 0.018,–,–,–
"COc1cc(C(=O)N[C@H](CN2CCN(c3cccc(O)c3)[C@@H](C)C2)C(C)C)ccc1Oc1cccc(C)c1.Cl.Cl [Compound 19h, N-[(2S)-1-[(3S)-4-(3-Hydroxyphenyl)-3-methylpiperazin-1-yl]-3-methylbutan-2-yl]-3-methoxy-4-(3-methylphenoxy)benzamide Dihydrochloride]",–,0.00025 ± 7e-05,–,–,128 to 131,0.0351 ± 0.015,0.093 ± 0.004,–,–,–
"Cc1cccc(Oc2ccc(C(=O)N[C@H](CN3CCN(c4cccc(O)c4)[C@@H](C)C3)C(C)C)c(O)c2)c1.Cl.Cl [Compound 19l, 2-Hydroxy-N-[(1S)-1-{[(3S)-4-(3-hydroxyphenyl)-3-methylpiperazin-1-yl]methyl}-2-methylpropyl]-4-(3-methylphenoxy)benzamide Dihydrochloride]",–,–,129,81,119 to 123,–,–,0.0018 ± 0.0003,0.145 ± 0.048,0.233 ± 0.09
"COc1cc(Oc2cccc(C)c2)ccc1C(=O)N[C@H](CN1CCN(c2cccc(O)c2)[C@@H](C)C1)C(C)C.Cl.Cl [Compound 19k, N-[(1S)-1-{[(3S)-4-(3-Hydroxyphenyl)-3-methylpiperazin-1-yl]methyl}-2-methylpropyl]-2-methoxy-4-(3-methylphenoxy)benzamide Dihydrochloride]",–,0.0013 ± 3e-05,48,38,99 to 102,0.049 ± 0.014,0.063 ± 0.02,–,–,–
"Cc1cccc(Oc2ccc(C(=O)N[C@H](CN3CCN(c4cccc(O)c4)[C@@H](C)C3)C(C)C)cc2O)c1.Cl.Cl [Compound 19i, 3-Hydroxy-N-[(2S)-1-[(3S)-4-(3-hydroxyphenyl)-3-methylpiperazin-1-yl]-3-methylbutan-2-yl]-4-(3-methylphenoxy)benzamide Dihydrochloride]",–,0.00057 ± 0.00014,142,24,195 to 200,0.0137 ± 0.0056,0.081 ± 0.035,–,–,–
"Cc1cccc(Oc2ccc(C(=O)N[C@H](CN3CCN(c4cccc(O)c4)[C@@H](C)C3)C(C)C)cc2Cl)c1.Cl.Cl [Compound 6l, 3-Chloro-N-[(2S)-1-[(3S)-4-(3-hydroxyphenyl)-3-methylpiperazin-1-yl]-3-methylbutan-2-yl]-4-(3-methylphenoxy)benzamide Dihydrochloride]",high efficacy (low Ke values),0.00029 ± 0.00013,–,–,154 to 158,0.043 ± 0.01,1.1 ± 0.262,–,–,–
"Cc1cc(C)cc(Oc2ccc(C(=O)N[C@H](CN3CCN(c4cccc(O)c4)[C@@H](C)C3)C(C)C)cc2)c1.Cl.Cl [Compound 19f, 4-(3,5-Dimethylphenoxy)-N-[(1S)-1-{[(3S)-4-(3-hydroxyphenyl)-3-methylpiperazin-1-yl]methyl}-2-methylpropyl]benzamide Dihydrochloride]",–,0.00098 ± 6e-05,80,26,117 to 120,0.025 ± 0.007,0.078 ± 0.02,–,–,–
"COc1cc(C(=O)N[C@H](CN2CCN(c3cccc(O)c3)[C@@H](C)C2)C(C)C)ccc1Oc1cc(C)ccc1O.Cl.Cl [Compound 19o, 4-(2-Hydroxy-5-methylphenoxy)-N-[(1S)-1-{[(3S)-4-(3-hydroxyphenyl)-3-methylpiperazin-1-yl]methyl}-2-methylpropyl]-3-methoxybenzamide Dihydrochloride]",–,0.0062 ± 0.0022,6,2,100 to 103,–,–,–,0.01 ± 0.0026,0.037 ± 0.013
"CC(C)[C@@H](CN1CCN(c2cccc(O)c2)[C@@H](C)C1)NC(=O)c1ccc(Oc2cccc(Br)c2)cc1.Cl.Cl [Compound 19d, 4-(3-Bromophenoxy)-N-[(1S)-1-{[(3S)-4-(3-hydroxyphenyl)-3-methylpiperazin-1-yl]methyl}-2-methylpropyl]benzamide Dihydrochloride]",–,0.00048 ± 2e-05,88,35,106 to 109,0.017 ± 0.0063,0.042 ± 0.019,–,–,–
"CC(C)[C@@H](CN1CCN(c2cccc(O)c2)[C@@H](C)C1)NC(=O)c1ccc(Oc2cccc(Cl)c2)cc1.Cl.Cl [Compound 19c, 4-(3-Chlorophenoxy)-N-[(1S)-1-{[(3S)-4-(3-hydroxyphenyl)-3-methylpiperazin-1-yl]methyl}-2-methylpropyl]benzamide Dihydrochloride]",–,0.00042 ± 5e-05,20,43,103 to 105,0.018 ± 0.0072,0.0083 ± 0.0009,–,–,–
"CC(C)[C@@H](CN1CCN(c2cccc(O)c2)[C@@H](C)C1)NC(=O)c1ccc(Oc2cccc(C(F)(F)F)c2)cc1 [Compound 19b, N-[(1S)-1-{[(3S)-4-(3-Hydroxyphenyl)-3-methylpiperazin-1-yl]methyl}-2-methylpropyl]-4-[3-(trifluoromethyl)phenoxy]benzamide]",–,–,45,18,110 to 115,–,–,0.0012 ± 0.00035,0.021 ± 0.0072,0.054 ± 0.019
"CC(C)[C@@H](CN1CCN(c2cccc(O)c2)[C@@H](C)C1)NC(=O)c1ccc(Oc2ccccc2)nc1.Cl.Cl.Cl [Compound 7b, N-[(2S)-1-[(3S)-4-(3-Hydroxyphenyl)-3-methylpiperazin-1-yl]-3-methylbutan-2-yl]-6-phenoxypyridine-3-carboxamide Trihydrochloride]",–,–,1119,38,168 to 170,–,–,0.0016 ± 0.0003,0.06 ± 0.011,1.79 ± 0.063
